Experiments:
Experiment in all cases: relative viability (nuclei count vs DMSO), 5 days (fraction); higher = more cells survive
A-427 = system: A-427
Procedure, shortened: (§1)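 Lung cancer cell lines were pin-tool dosed in 1536-well plates on the day after seeding, with either a lone drug or a fixed anchor-drug dose plus five library-drug doses (not always all listed) in √10 steps. Nuclei were counted on 4× images after 5 days. Relative viability is the ratio of treated-well to vehicle-well nuclei counts, with each value a median of duplicate plates.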

ABC-1 = system: ABC-1
Procedure, shortened: as §1

BEN = system: BEN
Procedure, shortened: as §1

CAL-12T = system: CAL-12T
Procedure, shortened: as §1

HARA = system: HARA
Procedure, shortened: as §1

LOU-NH91 = system: LOU-NH91
Procedure, shortened: as §1

NCI-H1651 = system: NCI-H1651
Procedure, shortened: as §1

NCI-H1666 = system: NCI-H1666
Procedure, shortened: as §1

NCI-H1734 = system: NCI-H1734
Procedure, shortened: as §1

NCI-H1944 = system: NCI-H1944
Procedure, shortened: as §1

NCI-H1975 = system: NCI-H1975
Procedure, shortened: as §1

NCI-H2085 = system: NCI-H2085
Procedure, shortened: as §1

NCI-H2126 = system: NCI-H2126
Procedure, shortened: as §1

NCI-H460 = system: NCI-H460
Procedure, shortened: as §1

NCI-H520 = system: NCI-H520
Procedure, shortened: as §1

NCI-H596 = system: NCI-H596
Procedure, shortened: as §1

NCI-H647 = system: NCI-H647
Procedure, shortened: as §1

NCI-H661 = system: NCI-H661
Procedure, shortened: as §1

NCI-H727 = system: NCI-H727
Procedure, shortened: as §1

NCI-H838 = system: NCI-H838
Procedure, shortened: as §1

RERF-LC-KJ = system: RERF-LC-KJ
Procedure, shortened: as §1

Compound: Cc1csc(=NC2CCCCC2)n1/N=C/c1ccc(O)c(O)c1O [MIM1] + CS(=O)(=O)CCNCc1ccc(-c2ccc3ncnc(Nc4ccc(OCc5cccc(F)c5)c(Cl)c4)c3c2)o1 [Lapatinib] (partner 2 µM)
- relative viability (A-427; first compound 0.2 µM): 1.05
- relative viability (A-427; first compound 0.6325 µM): 1.05
- relative viability (A-427; first compound 2 µM): 0.868
- relative viability (A-427; first compound 6.325 µM): 0.841
- relative viability (A-427; first compound 20 µM): 0.265
- relative viability (ABC-1; first compound 0.2 µM): 1.32
- relative viability (ABC-1; first compound 0.6325 µM): 1.24
- relative viability (ABC-1; first compound 2 µM): 1.31
- relative viability (ABC-1; first compound 6.325 µM): 1.06
- relative viability (ABC-1; first compound 20 µM): 1.11
- relative viability (BEN; first compound 0.2 µM): 0.732
- relative viability (BEN; first compound 0.6325 µM): 0.674
- relative viability (BEN; first compound 2 µM): 0.843
- relative viability (BEN; first compound 6.325 µM): 0.622
- relative viability (BEN; first compound 20 µM): 0.193
- relative viability (CAL-12T; first compound 0.2 µM): 0.615
- relative viability (CAL-12T; first compound 2 µM): 0.754
- relative viability (CAL-12T; first compound 6.325 µM): 0.578
- relative viability (CAL-12T; first compound 20 µM): 0.22
- relative viability (HARA; first compound 0.2 µM): 0.615
- relative viability (HARA; first compound 0.6325 µM): 0.662
- relative viability (HARA; first compound 2 µM): 0.821
- relative viability (HARA; first compound 6.325 µM): 0.55
- relative viability (HARA; first compound 20 µM): 0.128
- relative viability (LOU-NH91; first compound 0.2 µM): 0.744
- relative viability (LOU-NH91; first compound 0.6325 µM): 0.8
- relative viability (LOU-NH91; first compound 2 µM): 0.645
- relative viability (LOU-NH91; first compound 6.325 µM): 0.625
- relative viability (LOU-NH91; first compound 20 µM): 0.362
- relative viability (NCI-H1651; first compound 0.2 µM): 0.883
- relative viability (NCI-H1651; first compound 0.6325 µM): 0.854
- relative viability (NCI-H1651; first compound 2 µM): 0.95
- relative viability (NCI-H1651; first compound 6.325 µM): 0.655
- relative viability (NCI-H1651; first compound 20 µM): 0.274
- relative viability (NCI-H1666; first compound 0.2 µM): 0.662
- relative viability (NCI-H1666; first compound 0.6325 µM): 0.577
- relative viability (NCI-H1666; first compound 2 µM): 0.507
- relative viability (NCI-H1666; first compound 6.325 µM): 0.362
- relative viability (NCI-H1666; first compound 20 µM): 0.206
- relative viability (NCI-H1734; first compound 0.2 µM): 1.18
- relative viability (NCI-H1734; first compound 0.6325 µM): 0.874
- relative viability (NCI-H1734; first compound 2 µM): 0.971
- relative viability (NCI-H1734; first compound 6.325 µM): 0.823
- relative viability (NCI-H1734; first compound 20 µM): 0.198
- relative viability (NCI-H1944; first compound 0.2 µM): 0.889
- relative viability (NCI-H1944; first compound 0.6325 µM): 0.805
- relative viability (NCI-H1944; first compound 2 µM): 0.491
- relative viability (NCI-H1944; first compound 6.325 µM): 0.535
- relative viability (NCI-H1944; first compound 20 µM): 0.445
- relative viability (NCI-H1975; first compound 0.2 µM): 0.789
- relative viability (NCI-H1975; first compound 0.6325 µM): 0.796
- relative viability (NCI-H1975; first compound 2 µM): 0.875
- relative viability (NCI-H1975; first compound 6.325 µM): 0.537
- relative viability (NCI-H1975; first compound 20 µM): 0.395
- relative viability (NCI-H2085; first compound 0.2 µM): 0.799
- relative viability (NCI-H2085; first compound 0.6325 µM): 0.796
- relative viability (NCI-H2085; first compound 2 µM): 0.772
- relative viability (NCI-H2085; first compound 6.325 µM): 0.652
- relative viability (NCI-H2085; first compound 20 µM): 0.537
- relative viability (NCI-H2126; first compound 0.2 µM): 0.763
- relative viability (NCI-H2126; first compound 0.6325 µM): 0.72
- relative viability (NCI-H2126; first compound 2 µM): 0.77
- relative viability (NCI-H2126; first compound 6.325 µM): 0.679
- relative viability (NCI-H2126; first compound 20 µM): 0.339
- relative viability (NCI-H460; first compound 0.2 µM): 0.889
- relative viability (NCI-H460; first compound 0.6325 µM): 1.01
- relative viability (NCI-H460; first compound 2 µM): 0.351
- relative viability (NCI-H460; first compound 6.325 µM): 0.256
- relative viability (NCI-H460; first compound 20 µM): 0.0216
- relative viability (NCI-H520; first compound 0.2 µM): 0.823
- relative viability (NCI-H520; first compound 0.6325 µM): 0.691
- relative viability (NCI-H520; first compound 2 µM): 0.924
- relative viability (NCI-H520; first compound 6.325 µM): 0.691
- relative viability (NCI-H520; first compound 20 µM): 0.269
- relative viability (NCI-H596; first compound 0.2 µM): 1.13
- relative viability (NCI-H596; first compound 0.6325 µM): 1.16
- relative viability (NCI-H596; first compound 2 µM): 1.07
- relative viability (NCI-H596; first compound 6.325 µM): 0.932
- relative viability (NCI-H596; first compound 20 µM): 0.733
- relative viability (NCI-H647; first compound 0.2 µM): 1.03
- relative viability (NCI-H647; first compound 0.6325 µM): 1.04
- relative viability (NCI-H647; first compound 2 µM): 1.02
- relative viability (NCI-H647; first compound 6.325 µM): 0.633
- relative viability (NCI-H647; first compound 20 µM): 0.104
- relative viability (NCI-H661; first compound 0.2 µM): 0.582
- relative viability (NCI-H661; first compound 0.6325 µM): 0.625
- relative viability (NCI-H661; first compound 2 µM): 0.548
- relative viability (NCI-H661; first compound 6.325 µM): 0.498
- relative viability (NCI-H661; first compound 20 µM): 0.29
- relative viability (NCI-H727; first compound 0.2 µM): 0.852
- relative viability (NCI-H727; first compound 0.6325 µM): 0.969
- relative viability (NCI-H727; first compound 2 µM): 0.733
- relative viability (NCI-H727; first compound 6.325 µM): 0.745
- relative viability (NCI-H727; first compound 20 µM): 0.257
- relative viability (NCI-H838; first compound 0.2 µM): 0.941
- relative viability (NCI-H838; first compound 0.6325 µM): 0.885
- relative viability (NCI-H838; first compound 2 µM): 0.815
- relative viability (NCI-H838; first compound 6.325 µM): 0.672
- relative viability (NCI-H838; first compound 20 µM): 0.183
- relative viability (RERF-LC-KJ; first compound 0.2 µM): 0.769
- relative viability (RERF-LC-KJ; first compound 0.6325 µM): 0.772
- relative viability (RERF-LC-KJ; first compound 2 µM): 0.795
- relative viability (RERF-LC-KJ; first compound 6.325 µM): 0.75
- relative viability (RERF-LC-KJ; first compound 20 µM): 0.3

Source: the supplement of paper PMC10307832
